Data as given in patent publication US20220280543A1, “DDX17 AND NLRC4 TARGETING FOR INFLAMMATORY DISEASES” (University of Virginia Patent Foundation, priority 2019, published 2022).
Entries after “also recorded” stand apart in the source; their conditions may differ.

Key:
[1] = tested on: NLRC4 phosphorylation (site S533); experiment: Alu RNA induced NLRC4 phosphorylation (S533) in BMDM pre-treated with kinase inhibitors, immunoblot; assay type: cell-based, mouse; details: BMDM pre-treated 1 hour with inhibitor at 2 μM or 5 μM, then Alu RNA transfection (100 pmol)
Experimental: (§1) FIG. 2. SINE RNA induced NLRC4 phosphorylation (site S533) through protein Kinase C Delta. BMDM cell pre-treated with the LRRK2 Kinase inhibitor gsk2578215a (GSK; 5-(2-Fluoro-4-pyridinyl)-2-(phenylmethoxy)-N-3-pyridinyl-benzamide; CAS Number 1285515-21-0; Sigma-Aldrich, St. Louis, Mo., United States of America) or the PKC delta inhibitor Rottlerin (CAS Number 82-08-6; Sigma-Aldrich) at 2 μM or 5 μM, and treated with Alu RNA (SEQ ID NO: 86) transfection or transfection reagent alone (Mock). NLRC4 phosphorylation (P-NLRC4) and supernatant caspase-1 activation were detected by SDS-PAGE. […] PKC delta inhibitor, Rottlerin blocked Alu RNA-induced NLRC4 phosphorylation and caspase-1 activation. The p-NLRC4 and caspase-1 (p20) bands were indicated with black arrows.
(§2) Previous studies have shown that NLRC4 inflammasome activation in response to Salmonella exposure requires two steps for its activation, phosphorylation on Ser533 residue of NLRC4 and NAIP mediated oligomerization of NLRC4. […] Moreover, treatment with SINE RNAs induced caspase-1 p20 cleavage, indicative of inflammasome activation (FIG. 2). For the subsequent experiments in this study, we used Alu RNA (SEQ ID NO: 86) as the stimulus to activate the NLRC4 inflammasome. To date, two kinases are reported to phosphorylate NLRC4 at S533: protein kinase C delta (PKCδ) and leucine rich repeat-containing kinase-2 (LRRK2). […]

caspase-1 = experiment: Alu RNA induced caspase-1 activation (p20 in supernatant) in BMDM pre-treated with kinase inhibitors; assay type: cell-based, mouse; details: BMDM pre-treated 1 hour with inhibitor at 2 μM or 5 μM, then Alu RNA transfection (100 pmol)
Experimental: as §1, §2

[2] = target: T1, human NLR family pyrin domain containing 3 (NLRP3) (human, UniProt Q96P20 1-1036); experiment: proximity ligation assay (PLA) in human RPE cells transfected with biotinylated Alu RNA
T1 construct: Endogenous protein of human RPE cells
Experimental: FIG. 37. Alu RNA (SEQ ID NO: 86) induces the assembly of NLRC4 and NLRP3 complex. Human RPE cells were transfected with biotinylated Alu RNA (SEQ ID NO: 86 at 100 pmol) by LIPOFECTAMINE™ 3000 brand transfection reagent (Lipo; ThermoFisher Scientific). The assembly of NLRC4 and NLRP3 complex was evaluated by Proximity Ligation Assay (PLA). […] The signal of NLRC4-NLRP3 complexes is indicated by the white arrow.
Human RPE cells were treated with biotinylated Alu RNA (SEQ ID NO: 86 at 100 pmol). The assembly of NLRC4 and NLRP3 complex was evaluated by Proximity Ligation Assay (PLA).

[3] = target: the molecule itself; experiment: homo-oligomerization, Tris-glycine native PAGE, Alu RNA-transfected human RPE cells
Description: FIGS. 24A and 24B. Alu RNA (SEQ ID NO: 86) induced NLRC4 activation in human RPE cells. To test whether Alu RNA (SEQ ID NO: 86) induces NLRC4 activation in human RPE, we transfected human RPE with Alu RNA (SEQ ID NO: 86 at 100 pmol). FIG. 24A. Immunofluorescence staining on NLRC4 show Alu RNA (SEQ ID NO: 86) induced cytosolic NLRC4 punctate in hRPE cells. The NLRC4 aggregates induced by Alu RNA (SEQ ID NO: 86) are indicated by white arrows. FIG. 24B. Alu RNA (SEQ ID NO: 86) induced NLRC4 (p-NLRC4) phosphorylation and oligomerization. Loading control show by Actin. NLRC4 oligomers were detected by Tris-glycine native PAGE. […] The band of NLRC4 oligomers is indicated by black arrow.

T1 sequence (Q96P20 whole entry, the tested form may be a part): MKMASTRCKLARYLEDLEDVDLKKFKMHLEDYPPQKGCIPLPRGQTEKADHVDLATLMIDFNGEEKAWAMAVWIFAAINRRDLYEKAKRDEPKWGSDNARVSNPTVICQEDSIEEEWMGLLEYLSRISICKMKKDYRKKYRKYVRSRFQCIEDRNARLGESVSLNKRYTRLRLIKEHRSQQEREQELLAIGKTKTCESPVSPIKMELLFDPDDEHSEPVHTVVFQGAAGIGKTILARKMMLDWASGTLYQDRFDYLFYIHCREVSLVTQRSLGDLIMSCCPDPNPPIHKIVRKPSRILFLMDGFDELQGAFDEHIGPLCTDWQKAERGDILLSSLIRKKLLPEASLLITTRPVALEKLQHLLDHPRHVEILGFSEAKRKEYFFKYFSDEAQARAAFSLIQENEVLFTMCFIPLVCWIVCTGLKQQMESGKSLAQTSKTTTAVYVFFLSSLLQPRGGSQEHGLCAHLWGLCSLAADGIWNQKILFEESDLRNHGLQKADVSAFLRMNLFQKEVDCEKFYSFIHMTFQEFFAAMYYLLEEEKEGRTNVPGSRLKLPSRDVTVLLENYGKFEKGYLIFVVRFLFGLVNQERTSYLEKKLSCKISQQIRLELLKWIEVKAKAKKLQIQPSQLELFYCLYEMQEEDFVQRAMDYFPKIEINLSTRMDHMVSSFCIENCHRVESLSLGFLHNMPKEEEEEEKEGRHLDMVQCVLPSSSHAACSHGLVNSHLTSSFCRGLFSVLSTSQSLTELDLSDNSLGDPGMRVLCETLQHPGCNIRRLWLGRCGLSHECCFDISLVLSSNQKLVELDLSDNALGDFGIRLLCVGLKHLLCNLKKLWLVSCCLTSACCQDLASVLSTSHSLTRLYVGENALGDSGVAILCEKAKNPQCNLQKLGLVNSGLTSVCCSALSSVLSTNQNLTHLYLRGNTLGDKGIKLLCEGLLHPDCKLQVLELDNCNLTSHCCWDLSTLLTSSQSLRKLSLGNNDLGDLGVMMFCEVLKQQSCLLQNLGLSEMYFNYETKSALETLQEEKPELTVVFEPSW

CC(=O)c1c(O)c(C)c(O)c(Cc2c(O)c3c(c(C(=O)/C=C/c4ccccc4)c2O)OC(C)(C)C=C3)c1O [Rottlerin]
Alu RNA induced phosphorylation of NLRC4 [1]: blocked; also recorded: inhibited | Alu RNA induced caspase-1 activation (caspase-1): blocked; also recorded: inhibited

B1: human NLR family CARD domain containing 4 (NLRC4) (receptor)
chain: MNFIKDNSRALIQRMGMTVIKQITDDLFVWNVLNREEVNIICCEKVEQDAARGIIHMILKKGSESCNLFLKSLKEWNYPLFQDLNGQSLFHQTSEGDLDDLAQDLKDLYHTPSFLNFYPLGEDIDIIFNLKSTFTEPVLWRKDQHHHRVEQLTLNGLLQALQSPCIIEGESGKGKSTLLQRIAMLWGSGKCKALTKFKFVFFLRLSRAQGGLFETLCDQLLDIPGTIRKQTFMAMLLKLRQRVLFLLDGYNEFKPQNCPEIEALIKENHRFKNMVIVTTTTECLRHIRQFGALTAEVGDMTEDSAQALIREVLIKELAEGLLLQIQKSRCLRNLMKTPLFVVITCAIQMGESEFHSHTQTTLFHTFYDLLIQKNKHKHKGVAASDFIRSLDHCGDLALEGVFSHKFDFELQDVSSVNEDVLLTTGLLCKYTAQRFKPKYKFFHKSFQEYTAGRRLSSLLTSHEPEEVTKGNGYLQKMVSISDITSTYSSLLRYTCGSSVEATRAVMKHLAAVYQHGCLLGLSIAKRPLWRQESLQSVKNTTEQEILKAININSFVECGIHLYQESTSKSALSQEFEAFFQGKSLYINSGNIPDYLFDFFEHLPNCASALDFIKLDFYGGAMASWEKAAEDTGGIHMEEAPETYIPSRAVSLFFNWKQEFRTLEVTLRDFSKLNKQDIRYLGKIFSSATSLRLQIKRCAGVAGSLSLVLSTCKNIYSLMVEASPLTIEDERHITSVTNLKTLSIHDLQNQRLPGGLTDSLGNLKNLTKLIMDNIKMNEEDAIKLAEGLKNLKKMCLFHLTHLSDIGEGMDYIVKSLSSEPCDLEEIQLVSCCLSANAVKILAQNLHNLVKLSILDLSENYLEKDGNEALHELIDRMNVLEQLTALMLPWGCDVQGSLSSLLKHLEEVPQLVKLGLKNWRLTDTEIRILGAFFGKNPLKNFQQLNLAGNRVSSDGWLAFMGVFENLKQLVFFDFSTKEFLPDPALVRKLSQVLSKLTFLQEARLVGWQFDDDDLSVITGAFKLVTA
notes: Endogenous protein of human RPE cells and of human donor eyes
binding result [2]: binds | binding result [3]: binds
